Measured values published in patent publication US12122763B2, “Substituted piperidines for androgen receptor degradation” (UBIX THERAPEUTICS, INC., priority 2020, dated 2024).

Target: T1, Androgen Receptor (AR) protein (Homo sapiens, UniProt P10275, T878A)
T1 construct: endogenous in cells; host or cells: LNCaP
Experiment: Androgen Receptor (AR) protein degradation assay in LNCaP cells, western blotting
Assay type: cell-based
Details: 20 h; for inhibition at 0.01 µM: 0.01 μM compound; for inhibition at 0.1 µM: 0.1 μM compound; for inhibition at 1 µM: 1 μM compound
Method: Experimental Example 1: Androgen Receptor (AR) Protein Degradation Assay
After treating LNCaP cells with the synthesized Example compound, the amount of AR protein present in the cells was measured. The amount of AR protein was measured using western blotting detection method. The protocol of the experiment using LNCaP cells was as follows:
[Culture] LNCaP cells were resuspended in RPMI1640 MEDIUM (Hyclone, SH30027.01), 10% FBS (Hyclone, SV30207.02), and 1% Penicillin-streptomycin (Welgene, LS 202-02) media to be 3×10^5/mL. Then, 1 mL each was seeded in a 12-well plate. After that, they were cultured for 3 days.
[Compound treatment] 10 μl of 0.1, 1, 10, and 100 μM compound, which is the final compound treatment concentration and a 100× stock of 0.001, 0.01, 0.1, and 1 μM, was added in 1 ml media of each well, and 20 hours later, the cells were harvested.
[Cell Lysis] Cell pellets were suspended using 1% SDS lysis buffer (50 mM Tris, 1 mM EDTA, 1% SDS, pH 8.0, 0.5 mM PMSF, 1× Protease/Phosphatase inhibitor Cocktail (Cell Signaling Technology, 5872s)), and sonication (70% AMP, 5 cycles (30 sec ON/59 sec OFF)) was performed. Cell lysate was obtained after centrifugation at 4° C., 15000 g, for 20 minutes.
[Protein quantification] A BCA protein assay (SMART™ BCA Protein Assay Kit, iNtRON Biotechnology, 21071) was performed using a 96-well microplate. After adding 5 μl cell lysate and 5 μl 1% SDS lysis buffer to each well of the 96-well plate, 200 μl of BCA reagent (Reagent A:Reagent B=50:1) was additionally added. After incubation at 37° C. for 30 minutes, it was cooled at room temperature for 10 minutes. Then, absorbance was measured at a wavelength of 562 nm. The unknown protein concentration was measured using a BSA standard curve (0, 0.125, 0.25, 0.5, 1, 2 mg/ml). Western blotting samples were prepared by mixing cell lysate, 1% SDS lysis buffer, 4× Bolt™ LDS Sample buffer (Invitrogen, B0008), and 10× Bolt™ Sample Reducing Agent (Invitrogen, B0009) and boiling the mixture at 70° C. for 10 minutes.
[Electrophoresis] After loading 8 μg of protein sample into each well of Bolt™ 4 to 12%, Bis-Tris, 1.0 mm Mini Protein Gel, 17-well (Invitrogen, NW04127BOX), Bolt™ MES SDS Running Buffer (Invitrogen, B0002) was used for electrophoresis at 200V (constant V) for 50 minutes.
[Transfer] Using electrophoresis gel and Trans-Blot® Turbo™ Transfer Starter System (Bio-RAD, #17001918, Mini Nitrocellulose), transfer proceeded for 15 minutes under the condition of 1.3A (Constant A) and 25V (Limit V). To confirm protein transfer, 15 ml of Ponceau S solution (Sigma, P7170-1L) was used for staining for 1 minute, followed by washing to confirm the degree of transfer.
[Blocking] Membranes for AR detection were blocked for 45 minutes with 5% skim milk/0.2% TBST (Skim milk: BD, 232100/20× TBS: Biosesang, TR2008-100-00/10% Tween 20 Solution: Bio-RAD, #161-0781). Membranes for GAPDH and β-actin detection were blocked for 45 minutes with Odyssey blocking buffer: 0.1% TBST=1:1 (Odyssey blocking buffer: Li-COR Biosciences, 927-50000).
[Antibody and detection] The primary AR antibody (Androgen Receptor: CST, 5153s) was mixed with 5% skim milk/0.2% TBST at a ratio of 1:1000 and attached for 3 hours at room temperature. Primary β-actin antibody (GeneTex, 629630) was mixed with 5% BSA/0.2% TBST at a ratio of 1:2000 and attached for 3 hours at room temperature. Primary GAPDH antibody (GeneTex, 100118) was mixed with 5% BSA/0.2% TBST at a ratio of 1:2000 and attached for 3 hours at room temperature. After 3 hours, it was washed 3 times every 5 minutes using TBST (0.2% Tween 20). Anti-rabbit IgG, HRP-linked Antibody (CST, 7074s), secondary antibody for the AR antibody was mixed with 5% skim milk/0.2% TBST at a ratio of 1:5000 and attached for 45 minutes at room temperature. […]

T1 sequence (P10275 whole entry T878A): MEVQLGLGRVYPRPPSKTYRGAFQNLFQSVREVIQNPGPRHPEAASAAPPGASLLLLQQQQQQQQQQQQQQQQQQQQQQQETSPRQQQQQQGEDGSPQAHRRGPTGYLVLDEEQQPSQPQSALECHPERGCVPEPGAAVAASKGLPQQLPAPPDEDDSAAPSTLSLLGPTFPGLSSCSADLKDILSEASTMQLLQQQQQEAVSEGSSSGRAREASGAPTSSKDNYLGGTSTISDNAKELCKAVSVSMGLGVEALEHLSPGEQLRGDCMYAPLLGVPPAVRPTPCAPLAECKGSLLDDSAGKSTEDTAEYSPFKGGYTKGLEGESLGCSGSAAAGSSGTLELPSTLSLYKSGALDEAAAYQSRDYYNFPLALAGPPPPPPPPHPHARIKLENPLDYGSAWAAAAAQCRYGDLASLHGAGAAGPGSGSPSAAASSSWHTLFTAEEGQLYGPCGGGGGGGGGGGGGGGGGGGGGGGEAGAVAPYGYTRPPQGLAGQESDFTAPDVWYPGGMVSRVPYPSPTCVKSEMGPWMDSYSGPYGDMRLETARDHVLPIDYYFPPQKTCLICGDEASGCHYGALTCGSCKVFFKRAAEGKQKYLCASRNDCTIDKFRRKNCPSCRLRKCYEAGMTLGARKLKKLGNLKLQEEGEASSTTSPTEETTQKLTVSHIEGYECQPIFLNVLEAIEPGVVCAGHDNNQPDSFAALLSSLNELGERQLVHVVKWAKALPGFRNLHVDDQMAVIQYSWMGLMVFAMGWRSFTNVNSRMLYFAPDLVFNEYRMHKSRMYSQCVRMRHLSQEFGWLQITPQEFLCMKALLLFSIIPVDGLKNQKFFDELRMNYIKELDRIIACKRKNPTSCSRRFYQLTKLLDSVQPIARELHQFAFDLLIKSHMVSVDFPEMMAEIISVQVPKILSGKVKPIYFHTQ
T1 sequence (Q96SW2 whole entry partner): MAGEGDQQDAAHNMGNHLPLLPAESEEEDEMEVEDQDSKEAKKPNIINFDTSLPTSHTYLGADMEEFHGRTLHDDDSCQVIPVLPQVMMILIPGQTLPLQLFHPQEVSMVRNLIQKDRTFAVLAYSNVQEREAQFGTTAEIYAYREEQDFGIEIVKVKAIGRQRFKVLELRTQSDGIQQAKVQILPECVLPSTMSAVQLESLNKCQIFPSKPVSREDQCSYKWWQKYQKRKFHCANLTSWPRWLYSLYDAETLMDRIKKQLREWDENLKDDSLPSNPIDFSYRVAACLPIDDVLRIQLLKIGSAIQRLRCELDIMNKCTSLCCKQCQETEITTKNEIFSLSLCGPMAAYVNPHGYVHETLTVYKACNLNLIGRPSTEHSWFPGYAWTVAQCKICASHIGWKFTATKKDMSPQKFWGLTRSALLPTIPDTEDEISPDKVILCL

Row | Compound | inhibition at 0.01 µM [%] | inhibition at 0.1 µM [%] | inhibition at 1 µM [%]
1 | C[C@@H]1CN(CC2CCN(c3ccc(NC(=O)C4CCN(c5ccc(C#N)c(C(F)(F)F)c5)CC4)nc3)CC2)CCN1CC1CCN(c2ccc3c(c2)C(=O)N(C2CCC(=O)NC2=O)C3=O)CC1 (stereo partly drawn) [Example 25, 1-(4-cyano-3-(trifluoromethyl)phenyl)-N-(5-(4-(((3R)-4-((1-(2-(2,6-dioxopiperidin-3-yl)-1,3-dioxoisoindolin-5-yl)piperidin-4-yl)methyl)-3-methylpiperazin-1-yl)methyl)piperidin-1-yl)pyridin-2-yl)piperidine-4-carboxamide] | 73 | 98 | 98
2 | C[C@@H]1CN(CC2CCN(c3ccc(NC(=O)C4CCN(c5ccc(C#N)c(C(F)(F)F)c5)CC4)nc3)CC2)CCN1CC1CN(c2ccc3c(c2)C(=O)N(C2CCC(=O)NC2=O)C3=O)C1 (stereo partly drawn) [Example 26, 1-(4-cyano-3-(trifluoromethyl)phenyl)-N-(5-(4-(((3R)-4-((1-(2-(2,6-dioxopiperidin-3-yl)-1,3-dioxoisoindolin-5-yl)azetidin-3-yl)methyl)-3-methylpiperazin-1-yl)methyl)piperidin-1-yl)pyridin-2-yl)piperidine-4-carboxamide] | 75 | 98 | 98
3 | N#Cc1ccc(N2CCC(C(=O)Nc3ccc(N4CC(CN5CCN(CC6CCN(c7ccc8c(c7)C(=O)N(C7CCC(=O)NC7=O)C8=O)CC6)CC5)C4)cn3)CC2)cc1C(F)(F)F (stereo not drawn) [Example 27, 1-(4-cyano-3-(trifluoromethyl)phenyl)-N-(5-(3-((4-((1-(2-(2,6-dioxopiperidin-3-yl)-1,3-dioxoisoindolin-5-yl)piperidin-4-yl)methyl)piperazin-1-yl)methyl)azetidin-1-yl)pyridin-2-yl)piperidine-4-carboxamide] | 78 | 97 | 97
4 | N#Cc1ccc(N2CCC(C(=O)Nc3ccc(N4CC(CN5CCN(C[C@H]6CCN(c7ccc8c(c7)C(=O)N(C7CCC(=O)NC7=O)C8=O)C6)CC5)C4)cn3)CC2)cc1C(F)(F)F (stereo partly drawn) [Example 28, 1-(4-cyano-3-(trifluoromethyl)phenyl)-N-(5-(3-((4-(((3R)-1-(2-(2,6-dioxopiperidin-3-yl)-1,3-dioxoisoindolin-5-yl)pyrrolidin-3-yl)methyl)piperazin-1-yl)methyl)azetidin-1-yl)pyridin-2-yl)piperidine-4-carboxamide] | 82 | 96 | 95
5 | N#Cc1ccc(N2CCC(C(=O)Nc3ccc(N4CC(CN5CCN(C[C@@H]6CCN(c7ccc8c(c7)C(=O)N(C7CCC(=O)NC7=O)C8=O)C6)CC5)C4)cn3)CC2)cc1C(F)(F)F (stereo partly drawn) [Example 29, 1-(4-cyano-3-(trifluoromethyl)phenyl)-N-(5-(3-((4-(((3S)-1-(2-(2,6-dioxopiperidin-3-yl)-1,3-dioxoisoindolin-5-yl)pyrrolidin-3-yl)methyl)piperazin-1-yl)methyl)azetidin-1-yl)pyridin-2-yl)piperidine-4-carboxamide] | 80 | 97 | 97
6 | N#Cc1ccc(N2CCC(C(=O)Nc3ccc(N4CC(CN5CCN(CC6CN(c7ccc8c(c7)C(=O)N(C7CCC(=O)NC7=O)C8=O)C6)CC5)C4)cn3)CC2)cc1C(F)(F)F (stereo not drawn) [Example 30, 1-(4-cyano-3-(trifluoromethyl)phenyl)-N-(5-(3-((4-((1-(2-(2,6-dioxopiperidin-3-yl)-1,3-dioxoisoindolin-5-yl)azetidin-3-yl)methyl)piperazin-1-yl)methyl)azetidin-1-yl)pyridin-2-yl)piperidine-4-carboxamide] | 78 | 99 | 97
7 | C[C@@H]1CN(CC2CN(c3ccc4c(c3)C(=O)N(C3CCC(=O)NC3=O)C4=O)C2)CCN1CC1CN(c2ccc(NC(=O)C3CCN(c4ccc(C#N)c(C(F)(F)F)c4)CC3)nc2)C1 (stereo partly drawn) [Example 31, 1-(4-cyano-3-(trifluoromethyl)phenyl)-N-(5-(3-(((2R)-4-((1-(2-(2,6-dioxopiperidin-3-yl)-1,3-dioxoisoindolin-5-yl)azetidin-3-yl)methyl)-2-methylpiperazin-1-yl)methyl)azetidin-1-yl)pyridin-2-yl)piperidine-4-carboxamide] | 67 | 99 | 97
8 | C[C@@H]1CN(CC2CN(c3ccc(NC(=O)C4CCN(c5ccc(C#N)c(C(F)(F)F)c5)CC4)nc3)C2)CCN1CC1CN(c2ccc3c(c2)C(=O)N(C2CCC(=O)NC2=O)C3=O)C1 (stereo partly drawn) [Example 32, 1-(4-cyano-3-(trifluoromethyl)phenyl)-N-(5-(3-(((3R)-4-((1-(2-(2,6-dioxopiperidin-3-yl)-1,3-dioxoisoindolin-5-yl)azetidin-3-yl)methyl)-3-methylpiperazin-1-yl)methyl)azetidin-1-yl)pyridin-2-yl)piperidine-4-carboxamide] | 62 | 99 | 99
9 | N#Cc1ccc(N2CCC(C(=O)Nc3ccc(N4CCC(CN5CCN(C6CN(c7ccc8c(n7)CN(C7CCC(=O)NC7=O)C8=O)C6)CC5)CC4)cn3)CC2)cc1C(F)(F)F (stereo not drawn) [Example 33, 1-(4-cyano-3-(trifluoromethyl)phenyl)-N-(5-(4-((4-(1-(6-(2,6-dioxopiperidin-3-yl)-5-oxo-6,7-dihydro-5H-pyrrolo[3,4-b]pyridin-2-yl)azetidin-3-yl)piperazin-1-yl)methyl)piperidin-1-yl)pyridin-2-yl)piperidine-4-carboxamide] | 54 | 90 | 72
10 | N#Cc1ccc(N2CCC(C(=O)Nc3ccc(N4CCC(CN5CCN(CC6CCN(c7ccc8c(n7)CN(C7CCC(=O)NC7=O)C8=O)CC6)CC5)CC4)cn3)CC2)cc1C(F)(F)F (stereo not drawn) [Example 34, 1-(4-cyano-3-(trifluoromethyl)phenyl)-N-(5-(4-((4-((1-(6-(2,6-dioxopiperidin-3-yl)-5-oxo-6,7-dihydro-5H-pyrrolo[3,4-b]pyridin-2-yl)piperidin-4-yl)methyl)piperazin-1-yl)methyl)piperidin-1-yl)pyridin-2-yl)piperidine-4-carboxamide] | 88 | 99 | 96
11 | N#Cc1ccc(N2CCC(C(=O)Nc3ccc(N4CCC(CN5CCN(C6CN(c7ccc8c(c7)C(=O)N(C7CCC(=O)NC7=O)C8=O)C6)CC5)CC4)cn3)CC2)cc1C(F)(F)F (stereo not drawn) [Example 35, 1-(4-cyano-3-(trifluoromethyl)phenyl)-N-(5-(4-((4-(1-(2-(2,6-dioxopiperidin-3-yl)-1,3-dioxoisoindolin-5-yl)azetidin-3-yl)piperazin-1-yl)methyl)piperidin-1-yl)pyridin-2-yl)piperidine-4-carboxamide] | 71 | 97 | 95
12 | N#Cc1ccc(N2CCC(C(=O)Nc3ccc(N4CC(CN5CCN(C6CN(c7ccc8c(c7)C(=O)N(C7CCC(=O)NC7=O)C8=O)C6)CC5)C4)cn3)CC2)cc1C(F)(F)F (stereo not drawn) [Example 36, 1-(4-cyano-3-(trifluoromethyl)phenyl)-N-(5-(3-((4-(1-(2-(2,6-dioxopiperidin-3-yl)-1,3-dioxoisoindolin-5-yl)azetidin-3-yl)piperazin-1-yl)methyl)azetidin-1-yl)pyridin-2-yl)piperidine-4-carboxamide] | 66 | 94 | 94
